Laboratory results published in patent US7786299B2, “Methods for treating diseases or conditions using dihydropteridinone compounds” (Boehringer Ingelheim Pharma GmbH & Co. KG, priority 2003, dated 2010).

Experiments:
HeLaS3 cells = assay: Measurement of cytotoxicity on cultivated human tumour cells (AlamarBlue); type: cell-based; conditions: HeLa in Table 1; unit inferred
Protocol: The activity of the compounds according to the invention was determined in the cytotoxicity test on cultivated human tumour cells and/or in a FACS analysis, for example on HeLaS3 cells.
Measurement of Cytotoxicity on Cultivated Human Tumour Cells
To measure the cytotoxicity on cultivated human tumour cells, cells of the cervical cancer tumour cell line HeLaS3 (obtained from American Type Culture Collection (ATCC)) in Ham's F12 Medium (Life Technologies) and 10% foetal calf serum (Life Technologies) were cultivated and harvested in the logarithmic growth phase. Then the HeLaS3 cells were placed in 96-well plates (Costar) at a density of 1000 cells per well and incubated overnight in an incubator (at 37° C. and 5% CO2), while on each plate 6 wells were filled only with medium (3 wells as a control of the medium, 3 wells for incubation with reduced AlamarBlue). The active substances were added to the cells in various concentrations (dissolved in DMSO; final concentration: 1%) (in each case as a triple measurement). After 72 hours' incubation, 20 μl of AlamarBlue (AccuMed International) were added to each well, and the cells were incubated for a further 7 hours. As a control, 20 μl of reduced Alamar Blue (AlamarBlue reagent which had been autoclaved for 30 min) were added to 3 wells. After 7 h incubation the colour change of the AlamarBlue reagent in the individual wells was determined in a Perkin Elmer fluorescence spectrophotometer (excitation 530 nm, emission 590 nm, slits 15, integrate time 0.1). The amount of AlamarBlue reagent reacted represents the metabolic activity of the cells. The relative cell activity was calculated as a percentage of the control (HeLa S3 cells without inhibitor) and the active substance concentration which inhibits the cell activity by 50% (IC^50) was obtained. The values were calculated from the average of three individual measurements, correcting for the control value (medium control).

H460-VINC = assay: Cytotoxicity on H460-VINC cells (Table 1; method not given); type: cell-based; conditions: H460-VINC of Table 1; unit inferred

Compound | IC50 (HeLaS3 cells) [nM] | IC50 (H460-VINC) [nM]
COc1cc(C(=O)NCC(C)(C)CN(C)C)ccc1Nc1ncc2c(n1)N(CCC(C)C)C(C)(C)C(=O)N2C [Example 53] | 76 | 245
COc1cc(C(=O)NC2CCN(C)CC2)ccc1Nc1ncc2c(n1)N(CC(C)C)C(C)(C)C(=O)N2C [Example 61] | 65 | 1040
CC[C@@H]1C(=O)N(C)c2cnc(Nc3ccc(C(=O)NC(C)(C)CN(C)C)cc3OC)nc2N1CCC(C)C [Example 90] | 32 | 137
COc1cc(C(=O)NC(C)(C)CN2CCCC2)ccc1Nc1ncc2c(n1)N(C(C)C)C(C)C(=O)N2C (stereo not drawn) [Example 56] | 64 | 324
COc1cc(C(=O)NC2CC(C)(C)N(C)C(C)(C)C2)ccc1Nc1ncc2c(n1)N(CC(C)(C)C)C(C)C(=O)N2C (stereo not drawn) [Example 5] | 52 | 863
CCC1C(=O)N(C)c2cnc(Nc3ccc(C(=O)NC4CCN(C)CC4)cc3)nc2N1C1CCCC1 (stereo not drawn) [Example 44] | 9 | 204
COc1cc(C(=O)N[C@H]2CC[C@H](N3CCOCC3)CC2)ccc1Nc1ncc2c(n1)N(C1CCCC1)[C@H](C)C(=O)N2C [Example 40] | 38 | 187
COc1cc(C(=O)NC2CCC(N(C)C)CC2)ccc1Nc1ncc2c(n1)N(CCC(C)C)C(C)C(=O)N2C (stereo not drawn) [Example 114] | 64 | 766
CCN(CC)CCNC(=O)c1ccc(Nc2ncc3c(n2)N(C2CCCC2)C(C)C(=O)N3C)c(OC)c1 (stereo not drawn) [Example 62] | 58 | 538
COc1cc(C(=O)NC2CCC(N3CCN(CC4CC4)CC3)CC2)ccc1Nc1ncc2c(n1)N(C(C)C)C(C)C(=O)N2C (stereo not drawn) [Example 112] | 75 | 345
CCC1C(=O)N(C)c2cnc(Nc3ccc(C(=O)NC4CCCN(C)CC4)cc3OC)nc2N1CCC(C)C (mixture of isomers) [Example 172] | 20 | 772
CC1C(=O)N(C)c2cnc(Nc3ccc(C(=O)NCCCN4CCOCC4)cc3)nc2N1C1CCCC1 (stereo not drawn) [Example 69] | 55 | 633
CCC1C(=O)N(C)c2cnc(Nc3ccc(C(=O)NC4CCN(C5CCOCC5)CC4)cc3OC)nc2N1C1CCCC1 (stereo not drawn) [Example 116] | 6 | 174
CCC1C(=O)N(C)c2cnc(Nc3ccc(C(=O)NC4CCC(N(C)C)CC4)cc3OC)nc2N1C1CCCC1 (stereo not drawn) [Example 23] | 13 | 679
COc1cc(C(=O)NC2CCC(N3CCCC3)CC2)ccc1Nc1ncc2c(n1)N(CCC(C)C)[C@H](C)C(=O)N2C (stereo partly drawn) [Example 34] | 55 | 
CCC1C(=O)N(C)c2cnc(Nc3ccc(C(=O)NCCCN4CCOCC4)cc3OC)nc2N1CCC(C)C (stereo not drawn) [Example 151] | 43 | 
C[C@@H]1C(=O)N(C)c2cnc(Nc3ccc(C(=O)NC4CCN(C)CC4)cc3)nc2N1C1CCCC1 [Example 79] | 43 | 
COc1cc(C(=O)NC2CCN(Cc3ccccc3)CC2)ccc1Nc1ncc2c(n1)N(C1CCOCC1)C(C)C(=O)N2C (stereo not drawn) [Example 181] |  | 754
CCC1C(=O)N(C)c2cnc(Nc3ccc(C(=O)NC4CC5CCC(C4)N5C)cc3)nc2N1C1CCCC1 (stereo not drawn) [Example 47] | 28 | 
CCN1CC[C@@H](NC(=O)c2ccc(Nc3ncc4c(n3)N(CCC(C)C)[C@H](C)C(=O)N4C)cc2)C1 [Example 39] | 75 | 
COc1cc(C(=O)NC(C)(C)CN(C)C)ccc1Nc1ncc2c(n1)N(C1CCCC1)[C@H](C)C(=O)N2C [Example 175] |  | 296
CC[C@@H]1C(=O)N(C)c2cnc(Nc3ccc(C(=O)NCCN(CC)CC)cc3)nc2N1C(C)C [Example 73] | 91 | 
CCC1C(=O)N(C)c2cnc(Nc3ccc(C(=O)NCCN4CCCCC4)cc3OC)nc2N1CCC(C)C (stereo not drawn) [Example 148] | 87 | 
CC[C@@H]1C(=O)N(C)c2cnc(Nc3ccc(C(=O)NCCN4CCCCC4)cc3OC)nc2N1C(C)C [Example 72] | 50 | 
COc1cc(C(=O)NC2CCC(N3CCCC3)CC2)ccc1Nc1ncc2c(n1)N(C1CCCC1)C(C)C(=O)N2C (stereo not drawn) [Example 15] | 20 | 
CC[C@@H]1C(=O)N(C)c2cnc(Nc3ccc(C(=O)NCCCN4CCCC4)cc3OC)nc2N1CCC(C)C [Example 157] | 51 | 

Compound | IC50 (HeLaS3 cells) [nM] | IC50 (H460-VINC) [nM]
CC(C)CCN1c2nc(Nc3ccc(C(=O)NC4CC(C)(C)N(C)C(C)(C)C4)cc3)ncc2N(C)C(=O)C1C (stereo not drawn) [Example 3] | 61 | 
Cc1cc(C(=O)NC2CC3CCC(C2)N3C)ccc1Nc1ncc2c(n1)N(C1CCCCC1)[C@H](C)C(=O)N2C (stereo partly drawn) [Example 95] | 47 | 
CCN(CC)CCCNC(=O)c1ccc(Nc2ncc3c(n2)N(C2CCCC2)[C@H](C)C(=O)N3C)c(OC)c1 [Example 76] | 68 | 
COc1cc(C(=O)N[C@H]2CC[C@H](N3CCCC3)CC2)ccc1Nc1ncc2c(n1)N(CCC(C)C)[C@H](C)C(=O)N2C [Example 35] | 88 | 
CC[C@@H]1C(=O)N(C)c2cnc(Nc3ccc(C(=O)NCCN(CC)CC)cc3OC)nc2N1C(C)C [Example 74] | 43 | 
COc1cc(C(=O)NC2CCC(N3CCCCC3)CC2)ccc1Nc1ncc2c(n1)N(C1CCCC1)C(C)C(=O)N2C (stereo not drawn) [Example 25] | 38 | 
CCC1C(=O)N(C)c2cnc(Nc3ccc(C(=O)NC4CCN(Cc5ccccc5)CC4)cc3OC)nc2N1C1CCCCC1 (stereo not drawn) [Example 180] |  | 147
CCN(CC)CCNC(=O)c1ccc(Nc2ncc3c(n2)N(c2ccccc2)C(C)C(=O)N3C)c(OC)c1 (stereo not drawn) [Example 59] | 95 | 
C[C@@H]1C(=O)N(C)c2cnc(Nc3ccc(C(=O)NC4CC5CCC(C4)N5C)cc3)nc2N1C1CCCCC1 (stereo partly drawn) [Example 92] | 43 | 
CC1C(=O)N(C)c2cnc(Nc3ccc(C(=O)NC4CCN(Cc5ccccc5)CC4)cc3)nc2N1CC(C)(C)C (stereo not drawn) [Example 10] | 91 | 
CC1C(=O)N(C)c2cnc(Nc3ccc(C(=O)NC4CC(C)(C)N(C)C(C)(C)C4)cc3)nc2N1CC(C)(C)C (stereo not drawn) [Example 8] | 63 | 
CN1CCC(NC(=O)c2ccc(Nc3ncc4c(n3)N(C3CCCC3)[C@H](C3CC3)C(=O)N4C)cc2)CC1 [Example 93] | 60 | 
COc1cc(C(=O)N[C@H]2CC[C@H](N3CCCCC3)CC2)ccc1Nc1ncc2c(n1)N(CCC(C)C)[C@H](C)C(=O)N2C [Example 29] | 49 | 
CCC1C(=O)N(C)c2cnc(Nc3ccc(C(=O)NCCN(CC)CC)cc3OC)nc2N1CCC(C)C (stereo not drawn) [Example 149] | 85 | 
CCC1C(=O)N(C)c2cnc(Nc3ccc(C(=O)NCCN4CCCCC4)cc3)nc2N1CCC(C)C (stereo not drawn) [Example 150] | 43 | 
COc1cc(C(=O)NCCN(C(C)C)C(C)C)ccc1Nc1ncc2c(n1)N(CCC(C)C)C(C)(C)C(=O)N2C [Example 161] | 81 | 
CC[C@@H]1C(=O)N(C)c2cnc(Nc3ccc(C(=O)NCCN(C)C)cc3OC)nc2N1CCC(C)C [Example 159] | 29 | 
CC[C@@H]1C(=O)N(C)c2cnc(Nc3ccc(C(=O)NCCCN4CCOCC4)cc3)nc2N1CCC(C)C [Example 154] | 97 | 
COc1cc(C(=O)NC2CCC(N3CCCC3)CC2)ccc1Nc1ncc2c(n1)N(C1CCCC1)[C@H](C)C(=O)N2C (stereo partly drawn) [Example 36] | 21 | 
CC[C@@H]1C(=O)N(C)c2cnc(Nc3ccc(C(=O)NCCCN4CCOCC4)cc3)nc2N1CCC(C)C [Example 155] | 79 | 
CC1C(=O)N(C)c2cnc(Nc3ccc(C(=O)NCCN4CCCCC4)cc3)nc2N1C1CCCC1 (stereo not drawn) [Example 70] | 92 | 
CCC1C(=O)N(C)c2cnc(Nc3ccc(C(=O)NC4CN5CCC4CC5)cc3OC)nc2N1CCC(C)C (stereo not drawn) [Example 163] | 71 | 
CCN1CCC(NC(=O)c2ccc(Nc3ncc4c(n3)N(CCC(C)C)C(C)C(=O)N4C)cc2)CC1 (stereo not drawn) [Example 4] | 98 | 
CC[C@@H]1C(=O)N(C)c2cnc(Nc3ccc(C(=O)NCCCN4CCOCC4)cc3OC)nc2N1CCC(C)C [Example 152] | 81 | 
CC[C@@H]1C(=O)N(C)c2cnc(Nc3ccc(C(=O)NC(C)(C)CN(C)C)cc3OC)nc2N1C(C)C [Example 176] |  | 301
CC[C@@H]1C(=O)N(C)c2cnc(Nc3ccc(C(=O)NC(C)(C)CN(C)C)cc3OC)nc2N1C1CCCC1 [Example 177] |  | 82
